Values joined by “and” are separate entries in the source; they are usually repeats but may differ in a detail not shown here. Equal entries are not always repeated. Where two headings read alike, the source gives them in different places.
Assays:
human 5-HT1a receptor = target: T1, human 5-HT1a receptor (Homo sapiens, UniProt P08908); assay: [35S]GTPγS functional assay; type: biochemical; conditions: for Emax: read-out: intrinsic activity [% rel. to serotonin]
T1 construct: expressed in transfected cells
T1 sequence (P08908 1-422): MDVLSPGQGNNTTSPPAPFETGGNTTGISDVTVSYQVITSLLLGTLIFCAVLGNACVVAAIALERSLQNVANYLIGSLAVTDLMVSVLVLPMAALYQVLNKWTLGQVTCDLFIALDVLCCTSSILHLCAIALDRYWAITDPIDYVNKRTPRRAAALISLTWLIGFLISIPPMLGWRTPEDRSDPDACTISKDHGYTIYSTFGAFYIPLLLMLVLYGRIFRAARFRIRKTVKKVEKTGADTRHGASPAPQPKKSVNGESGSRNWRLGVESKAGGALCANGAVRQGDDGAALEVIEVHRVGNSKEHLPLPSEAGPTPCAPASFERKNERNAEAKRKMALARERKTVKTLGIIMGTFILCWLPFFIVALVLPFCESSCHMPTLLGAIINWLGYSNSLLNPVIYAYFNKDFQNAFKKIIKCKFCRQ
Protocol: Specific binding of [^35S]GTPγS is stimulated by activation of the stably expressed human 5-HT1a receptor in a dose-dependent way by agonists for this GPCR and is determined by measuring the radioactive label of the membrane. Non-linear regression analysis of the resulting dose-response curves yields the EC50 value in [nM] representing the half maximal concentration which is necessary to activate the receptor completely.

[1] = target: T2, human dopamine receptor subtype hD2long (Homo sapiens, UniProt P14416); assay: Receptor binding assay, [3H]spiperone competition, CHO cell membranes; conditions: for Ki: means of 2-8 individual experiments each done as triplicate; for selectivity ratio hD2long: vs p5-HT1a
T2 construct: expressed in transfected cells; host or cells: CHO
Protocol: (§1) Receptor binding data were determined when performing competition binding assays with membrane preparations of cloned cells (stably transfected Chinese Hamster Ovary cells (CHO)) expressing the human receptors and the following radioligands: [^3H]spiperone at the human dopamine receptor subtypes hD2long, hD2short, D3, and hD4.4.
(§2) Selectivity ratios were calculated by division of the Ki values of the various compounds at the respective receptors through the Ki values at the 5HT1a receptor.

[2] = target: T3, human dopamine receptor subtype hD3 (Homo sapiens, UniProt P35462); assay: as above; conditions: for Ki: means of 2-8 individual experiments each done as triplicate; for selectivity ratio hD3: vs p5-HT1a
T3 construct: expressed in transfected cells; host or cells: CHO
Protocol: as §1, §2

[3] = target: T4, human dopamine receptor subtype hD2short (Homo sapiens, UniProt P14416); assay: as above; conditions: for Ki: means of 2-8 individual experiments each done as triplicate; for selectivity ratio hD2short: vs p5-HT1a
T4 construct: expressed in transfected cells; host or cells: CHO
Protocol: as §1, §2

[4] = target: porcine cortical pα2 adrenergic receptor; assay: Receptor binding assay, [3H]RX821002 competition, porcine cortical membranes; conditions: means of 2-8 individual experiments each done as triplicate
[5] = target: T5, porcine cortical p5-HT1a serotonin receptor (Sus scrofa, UniProt A0A4X1UTF5); assay: Receptor binding assay, [3H]WAY100635 competition, porcine cortical membranes; conditions: for Ki: means of 2-8 individual experiments each done as triplicate; for selectivity ratio p5-HT1a: reference receptor of the ratio (=1)
T5 construct: membrane homogenates prepared from porcine striatal or cortical tissue; from tissue; host or cells: porcine cortex
T5 sequence (A0A4X1UTF5 1-422): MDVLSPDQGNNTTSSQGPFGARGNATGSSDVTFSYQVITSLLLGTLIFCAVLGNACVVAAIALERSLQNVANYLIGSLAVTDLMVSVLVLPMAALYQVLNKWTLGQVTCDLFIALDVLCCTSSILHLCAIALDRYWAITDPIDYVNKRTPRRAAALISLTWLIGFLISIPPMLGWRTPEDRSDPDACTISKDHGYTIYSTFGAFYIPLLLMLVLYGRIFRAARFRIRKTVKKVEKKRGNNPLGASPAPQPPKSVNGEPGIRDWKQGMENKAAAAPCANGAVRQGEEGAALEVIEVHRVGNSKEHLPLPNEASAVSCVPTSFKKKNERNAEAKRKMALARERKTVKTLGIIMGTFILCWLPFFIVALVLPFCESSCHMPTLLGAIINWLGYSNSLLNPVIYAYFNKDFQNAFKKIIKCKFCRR

[6] = system: porcine cortical pα1 adrenergic receptor; assay: Receptor binding assay, [3H]prazosin competition, porcine cortical membranes; conditions: vs p5-HT1a
[7] = target: T6, porcine cortical pα1 adrenergic receptor; assay: as above; conditions: means of 2-8 individual experiments each done as triplicate
T6 construct: Ki pα1; other: means of 2-8 individual experiments each done as triplicate

[8] = target: T7, human dopamine receptor subtype hD4.4 (Homo sapiens, UniProt P21917); assay: Receptor binding assay, [3H]spiperone competition, CHO cell membranes; conditions: for Ki: means of 2-8 individual experiments each done as triplicate; for selectivity ratio hD4.4: vs p5-HT1a
T7 construct: expressed in transfected cells; host or cells: CHO
T7 sequence (P21917 1-419): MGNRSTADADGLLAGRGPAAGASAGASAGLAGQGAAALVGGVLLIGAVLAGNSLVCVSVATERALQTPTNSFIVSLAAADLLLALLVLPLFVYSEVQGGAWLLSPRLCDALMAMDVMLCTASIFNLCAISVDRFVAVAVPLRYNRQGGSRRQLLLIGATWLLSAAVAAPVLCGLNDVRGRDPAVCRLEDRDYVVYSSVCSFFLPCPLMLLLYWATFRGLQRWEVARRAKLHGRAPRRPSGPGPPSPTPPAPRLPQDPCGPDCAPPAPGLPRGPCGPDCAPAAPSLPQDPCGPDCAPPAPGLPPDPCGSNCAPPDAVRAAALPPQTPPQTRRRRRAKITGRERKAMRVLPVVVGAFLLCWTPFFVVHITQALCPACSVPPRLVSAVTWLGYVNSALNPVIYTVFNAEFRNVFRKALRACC
Protocol: as §1, with “hD4.4. […].” for “hD4.4.”
as §2

[9] = target: T8, porcine cortical p5-HT2 serotonin receptor (Sus scrofa, UniProt P50129); assay: Receptor binding assay, [3H]ketanserin competition, porcine cortical membranes; conditions: for Ki: means of 2-8 individual experiments each done as triplicate; for selectivity ratio p5-HT2: vs p5-HT1a
T8 construct: membrane homogenates prepared from porcine striatal or cortical tissue; from tissue; host or cells: porcine cortex

[10] = target: T9, porcine striatal pD1 dopamine receptor (Sus scrofa, UniProt P50130); assay: Receptor binding assay, [3H]SCH 23390 competition, porcine striatal membranes; conditions: for Ki: means of 2-8 individual experiments each done as triplicate; for selectivity ratio pD1: vs p5-HT1a
T9 construct: membrane homogenates prepared from porcine striatal or cortical tissue; from tissue; host or cells: porcine striatum

[11] = mean values of 2-8 individual experiments

T4 sequence (P14416 1-414 isoform P14416-2): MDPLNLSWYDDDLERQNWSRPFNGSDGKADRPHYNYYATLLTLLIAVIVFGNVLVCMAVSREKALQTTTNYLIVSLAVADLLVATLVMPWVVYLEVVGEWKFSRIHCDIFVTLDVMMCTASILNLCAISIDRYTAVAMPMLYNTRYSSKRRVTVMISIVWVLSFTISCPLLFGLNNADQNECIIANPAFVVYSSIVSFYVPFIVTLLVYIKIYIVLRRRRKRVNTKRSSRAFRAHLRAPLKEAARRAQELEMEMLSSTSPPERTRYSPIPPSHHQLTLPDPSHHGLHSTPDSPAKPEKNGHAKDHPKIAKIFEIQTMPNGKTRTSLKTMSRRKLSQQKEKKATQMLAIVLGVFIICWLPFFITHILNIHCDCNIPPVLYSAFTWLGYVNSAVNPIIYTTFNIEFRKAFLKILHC
T3 sequence (P35462 whole entry): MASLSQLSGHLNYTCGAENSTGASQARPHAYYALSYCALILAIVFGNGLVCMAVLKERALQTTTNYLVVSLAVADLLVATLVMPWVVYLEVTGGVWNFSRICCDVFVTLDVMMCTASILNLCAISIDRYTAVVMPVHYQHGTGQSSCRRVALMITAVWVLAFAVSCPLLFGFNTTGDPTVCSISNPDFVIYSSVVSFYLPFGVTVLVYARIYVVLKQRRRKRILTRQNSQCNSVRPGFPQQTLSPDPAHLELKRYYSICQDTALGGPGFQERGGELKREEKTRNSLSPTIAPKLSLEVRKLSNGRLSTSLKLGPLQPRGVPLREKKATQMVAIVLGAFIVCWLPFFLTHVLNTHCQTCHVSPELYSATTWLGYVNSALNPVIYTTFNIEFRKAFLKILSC
T2 sequence (P14416 whole entry): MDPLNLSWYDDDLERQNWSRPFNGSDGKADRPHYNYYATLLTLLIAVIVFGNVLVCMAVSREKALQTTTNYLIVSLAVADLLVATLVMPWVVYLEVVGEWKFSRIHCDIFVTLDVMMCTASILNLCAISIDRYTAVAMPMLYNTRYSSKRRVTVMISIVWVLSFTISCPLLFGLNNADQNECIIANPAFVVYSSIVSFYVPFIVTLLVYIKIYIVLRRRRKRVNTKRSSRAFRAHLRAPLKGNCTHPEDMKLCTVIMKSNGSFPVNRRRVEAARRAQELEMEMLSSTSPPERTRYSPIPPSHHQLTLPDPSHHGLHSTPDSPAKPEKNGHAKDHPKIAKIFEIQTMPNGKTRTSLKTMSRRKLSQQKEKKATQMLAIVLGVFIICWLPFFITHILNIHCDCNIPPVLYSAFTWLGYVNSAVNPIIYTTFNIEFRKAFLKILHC
T9 sequence (P50130 whole entry): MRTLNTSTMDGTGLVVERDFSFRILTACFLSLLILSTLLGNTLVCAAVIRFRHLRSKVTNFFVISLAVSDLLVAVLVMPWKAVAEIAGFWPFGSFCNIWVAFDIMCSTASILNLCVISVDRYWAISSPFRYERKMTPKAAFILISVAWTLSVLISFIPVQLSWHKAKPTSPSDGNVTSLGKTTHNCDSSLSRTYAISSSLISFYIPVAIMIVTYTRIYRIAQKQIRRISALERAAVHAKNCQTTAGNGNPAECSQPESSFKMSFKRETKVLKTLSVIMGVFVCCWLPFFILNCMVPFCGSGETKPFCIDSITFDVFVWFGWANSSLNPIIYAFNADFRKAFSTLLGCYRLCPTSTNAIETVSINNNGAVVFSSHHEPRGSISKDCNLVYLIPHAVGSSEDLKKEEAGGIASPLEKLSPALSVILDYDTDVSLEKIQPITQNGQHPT
T8 sequence (P50129 whole entry): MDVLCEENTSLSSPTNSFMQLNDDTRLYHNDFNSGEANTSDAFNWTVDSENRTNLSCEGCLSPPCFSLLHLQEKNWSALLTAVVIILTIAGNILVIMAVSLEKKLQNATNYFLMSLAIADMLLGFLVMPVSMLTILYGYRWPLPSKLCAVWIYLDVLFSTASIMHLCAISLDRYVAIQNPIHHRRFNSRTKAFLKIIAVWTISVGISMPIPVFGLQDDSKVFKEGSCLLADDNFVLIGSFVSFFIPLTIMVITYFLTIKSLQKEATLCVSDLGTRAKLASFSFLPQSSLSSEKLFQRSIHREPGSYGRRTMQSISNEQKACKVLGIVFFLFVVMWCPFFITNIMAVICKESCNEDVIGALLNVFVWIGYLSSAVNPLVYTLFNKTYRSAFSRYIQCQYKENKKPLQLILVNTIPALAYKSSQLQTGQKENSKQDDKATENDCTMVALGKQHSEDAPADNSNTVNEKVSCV

Row | Ki [4] [nM] | Compound | EC50 (human 5-HT1a receptor; [11]) | Emax (human 5-HT1a receptor) [%] | Ki [1] [nM] | selectivity ratio hD2long [1] | Ki [2] [nM] | selectivity ratio hD3 [2] | Ki [3] [nM] | selectivity ratio hD2short [3] | Ki [5] [nM] | selectivity ratio p5-HT1a [5] | selectivity ratio pα1 [6] | Ki [7] [nM] | Ki [8] [nM] | selectivity ratio hD4.4 [8] | Ki [9] [nM] | selectivity ratio p5-HT2 [9] | Ki [10] [nM] | selectivity ratio pD1 [10] | other results
1 | 64 | CCCN(CCc1cccs1)[C@@H]1CCc2cccc(OC)c2C1 [Compound 2a, (R)—N-(8-Methoxytetralin-2-yl)-N-propyl-N-[2-(2-thienyl)ethyl]amine] | 1.1 nM | 82 | 750 | – | 230 | – | 840 | – | 7.3 | – | – | 140 | 880 | – | 6000 | – | 5200 | – | –
2 | 60 | CCCN(CCc1ccccc1)C1CCc2cccc(OC)c2C1 (stereo not drawn) [Compound 4, N-(8-Methoxytetralin-2-yl)-N-(2-phenylethyl)-N-propylamine] | – | – | 330 | – | 51 | – | 230 | – | 2.5 | – | – | 190 | 530 | – | 4200 | – | 7300 | – | –
3 | – | CCCN(CCc1cc(C)ccc1C)C1CCc2cccc(O)c2C1 (stereo not drawn) [Compound 7, N-[2-(2,5-Dimethylphenyl)ethyl]-N-(8-hydroxytetralin-2-yl)-N-propylamine] | – | – | 140 | 82 | 130 | 76 | 90 | 53 | 1.7 | 1 | 46 | 78 | 490 | 290 | 1700 | 1 000 | 2400 | 1 400 | melting point: 102 °C
4 | – | N-(2-Adamantylethyl)-N-(8-hydroxytetralin-2-yl)-N-propylamine [Compound 9] | – | – | 16 | 4.6 | 39 | 11 | 12 | 3.4 | 3.5 | 1 | 160 | 570 | 350 | 100 | 1600 | 1600 | 2600 | 740 | EC50 (human 5-HT1a receptor): 1.9 nM; intrinsic activity [% rel. to serotonin] (human 5-HT1a receptor; [35S]GTPγS incorporation relative to serotonin (=100%)): 88%

Row | Compound | Ki [4] [nM] | EC50 (human 5-HT1a receptor; [11]) | Emax (human 5-HT1a receptor) [%] | Ki [1] [nM] | selectivity ratio hD2long [1] | Ki [2] [nM] | selectivity ratio hD3 [2] | Ki [3] [nM] | selectivity ratio hD2short [3] | Ki [5] [nM] | selectivity ratio p5-HT1a [5] | selectivity ratio pα1 [6] | Ki [7] [nM] | Ki [8] [nM] | selectivity ratio hD4.4 [8] | Ki [9] [nM] | selectivity ratio p5-HT2 [9] | Ki [10] [nM] | selectivity ratio pD1 [10] | other results
5 | CCCN(CCc1cccs1)[C@@H]1CCc2cccc(O)c2C1 [Compound 1a, (R)—N-(8-Hydroxytetralin-2-yl)-N-propyl-N-[2-(2-thienyl)ethyl]amine] | 56 | 0.65 to 1.9 nM and 0.65 nM | 103 | 240 | 460 | 100 | 190 | 260 | 500 | 0.52 | 1 | 1 200 | 640 | 100 | 190 | 2500 | 4 800 | 8800 | 17 000 | agonist activity at the human 5-HT1a receptor (human 5-HT1a receptor; in words): full agonist activity
